Values quoted from earlier work in patent US20070185063A1, “Seven-membered ring nucleosides” (Idenix Pharmaceuticals, Inc., priority 2005, published 2007).

Key:
[1] = in vivo
[2] = test system: HCV; details: ribavirin alone
[3] = test system: human granulocyte-macrophage colony-forming (CFU-GM) activity; details: in vitro, bone marrow cells from healthy volunteers; clinically relevant concentrations
[4] = test system: erythroid burst-forming (BFU-E) activity; details: in vitro, bone marrow cells from healthy volunteers; clinically relevant concentrations

In the case of O=c1[nH]c(=O)n([C@@H]2O[C@H](CO)[C@@H](O)[C@@H]2F)cc1I [fialuridine, 1,-2′-deoxy-2′-fluoro-1-β-D-arabinofuranosyl-5-iodo-uracil], the “clinical adverse events due to direct mitochondrial toxicity” value [1] is listed as “caused hepatic failure, pancreatitis, neuropathy, myopathy and lactic acidosis”.

For NC(=O)c1ncn([C@@H]2O[C@H](CO)[C@@H](O)[C@H]2O)n1 [Ribavirin, 1-β-D-ribofuranosyl-1-1,2,4-triazole-3-carboxamide], the “effect on serum levels of HCV-RNA” value [2] is given as “does not lower serum levels of HCV-RNA” and the “patients in whom serum amino transferase levels are reduced to normal” value [2] is given as 40%.

In the case of Cc1cn([C@H]2C[C@H](N=[N+]=[N-])[C@@H](CO)O2)c(=O)[nH]c1=O [ZDV, zidovudine], the “concentration that directly inhibits CFU-GM activity” value [3] is listed as 1 to 2 µM and the “concentration that directly inhibits BFU-E activity” value [4] is listed as 1 to 2 µM.
